Values quoted from earlier work, collected in patent US20110052647A1, “Antidepressant Oral Pharmaceutical Compositions” (priority 2005, published 2011).

How the values were obtained:
[1] = oral administration of capsules containing enteric-coated pellets
[2] = system: dopaminergic, adrenergic, cholinergic or histaminergic receptors; details: in vitro
[3] = not given; remark: listed apart in the source

CNCC[C@H](Oc1cccc2ccccc12)c1cccs1 [Duloxetine, (S)-N-methyl-3-(1-naphthyloxy)-3-(2-thienyl)propan-1-amine]
dosage hydrolyzed to 1-naphthol (pH of 1.0, within one hour): 50%
dosage degrades to 1-Naphthol (pH of 2.0, in one hour): 10%
time for 10% degradation (pH of 4.0): up to 63 hours
mean plasma elimination half-life [1]: 12.1 h
median time to maximum concentration (Tmax) [1]: 6 h
affinity for dopaminergic, adrenergic, cholinergic or histaminergic receptors [2]: no significant affinity
inhibition of monoamine oxidase (MAO) (monoamine oxidase (MAO)): does not inhibit
pH values at which unstable in solution [3]: less than 2.5
